Assay results as given in US12473250B2, “Molecular design of new antibiotics and antibiotic adjuvants against MCR strains” (priority 2019, dated 2025).
≈ marks a conversion by molar mass, not a printed value.

Legend:
Type in all cases: cell-based
[1] = test system: colistin resistant MCR (+) E. Coli strains; assay: MIC, broth microdilution, compound alone; conditions: compound alone
Summary of the method: (§1)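 Wells held ~5×10^5 CFU/mL of bacteria prepared to 0.5 McFarland from overnight TSA colonies and exposed to serially diluted agents, following modified CLSI microdilution. After 24 h at 35 °C, growth judged by turbidity (OD600 possible); 99% inhibition sets the MIC.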

[2] = test system: colistin resistant MCR (−) E. Cloacae strain 7023456439; assay: MIC, broth microdilution, compound alone; conditions: strain 7023456439 E. Cloacae
Summary of the method: as §1

[3] = test system: colistin resistant MCR (−) E. Coli strains; assay: MIC, broth microdilution, compound alone
Summary of the method: as §1

[4] = test system: colistin resistant MCR (+) E. Coli strains; assay: Synergy study: colistin MIC in the presence of compound
Summary of the method: (§2)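 After 24 hours, MIC was read as the lowest concentration without visible growth. Drugs were tested singly and in combination by CLSI broth microdilution, equal-amount colistin:LC compound mixtures serially diluted 2-fold at a fixed synergy concentration.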

[5] = test system: colistin resistant MCR (−) E. Cloacae strain 7023456439; assay: as above; conditions: strain 7023456439 E. Cloacae
Summary of the method: as §2

[6] = test system: colistin resistant MCR (−) E. Coli strains; assay: as above
Summary of the method: as §2

[7] = strain 6083655967, MCR(+), compound at 10 μg (Table 2a: 10 ug/ml)
[8] = strain 7023444207, MCR(+), compound at 10 μg (Table 2a: 10 ug/ml)
[9] = compound at 10 μg (Table 2a: 10 ug/ml)
[10] = strain 6083672926, MCR(−), compound at 10 μg (Table 2a: 10 ug/ml)
[11] = strain 7023446108, MCR(−), compound at 10 μg (Table 2a: 10 ug/ml)
[12] = strain 7033607097, MCR(−), compound at 10 μg (Table 2a: 10 ug/ml)

CC(C)=CCc1c(OCCCC[n+]2ccccc2)ccc(C(=O)/C=C/c2ccc(OCCCC[n+]3ccccc3)cc2)c1O [LC365]
MIC ([1]; strain 6075066346, MCR (+)): 3.125 µg/mL | MIC ([1]; strain 6083655967, MCR (+)): 3.125 µg/mL | MIC ([1]; strain 6103645107, MCR (+)): 3.125 µg/mL | MIC ([1]; strain 6123520276, MCR (+)): 3.125 µg/mL | MIC ([1]; strain 7013177695, MCR (+)): 3.125 µg/mL | MIC ([1]; strain 7023436560, MCR (+)): 3.125 µg/mL | MIC ([1]; strain 7023444207, MCR (+)): 3.125 µg/mL | MIC [2]: >50 µg/mL | MIC ([3]; strain 6083672926, MCR (−)): 3.125 µg/mL | MIC ([3]; strain 7023446108, MCR (−)): 3.125 µg/mL | MIC ([3]; strain 7033607097, MCR (−)): 3.125 µg/mL | Colistin MIC in the presence of the compound ([4]; strain 6083655967, MCR(+), compound at 2 μg): 0.39 µg/mL | Colistin MIC in the presence of the compound ([4]; strain 6103645107, MCR(+), compound at 2 μg): 0.39 µg/mL | Colistin MIC in the presence of the compound ([4]; strain 6123520276, MCR(+), compound at 2 μg): 0.39 µg/mL | Colistin MIC in the presence of the compound ([4]; strain 7023444207, MCR(+), compound at 2 μg): 0.39 µg/mL | Colistin MIC in the presence of the compound ([5]; compound at 2 μg): >12.5 µg/mL | Colistin MIC in the presence of the compound ([6]; strain 6083672926, MCR(−), compound at 2 μg): 0.195 µg/mL | Colistin MIC in the presence of the compound ([6]; strain 7023446108, MCR(−), compound at 2 μg): 0.195 µg/mL | Colistin MIC in the presence of the compound ([6]; strain 7033607097, MCR(−), compound at 2 μg): 0.195 µg/mL

O=C(C=Cc1ccc(OCCCCN2CCNCCNCCNCC2)cc1)c1ccc(OCCCCN2CCNCCNCCNCC2)cc1O.[Cl][Zn][Cl].[Cl][Zn][Cl] [LC304]
MIC ([1]; strain 6075066346, MCR (+)): >50 µg/mL | MIC ([1]; strain 6083655967, MCR (+)): >50 µg/mL | MIC ([1]; strain 6103645107, MCR (+)): >50 µg/mL | MIC ([1]; strain 6123520276, MCR (+)): >50 µg/mL | MIC ([1]; strain 7013177695, MCR (+)): >50 µg/mL | MIC ([1]; strain 7023436560, MCR (+)): >50 µg/mL | MIC ([1]; strain 7028444207 (Table 1b), MCR (+)): >50 µg/mL | MIC [2]: >50 µg/mL | MIC ([3]; strain 6083672926, MCR (−)): >50 µg/mL | MIC ([3]; strain 7023446108, MCR (−)): >50 µg/mL | MIC ([3]; strain 7033607097, MCR (−)): >50 µg/mL | Colistin MIC in the presence of the compound [4, 7]: 1.56 µg/mL | Colistin MIC in the presence of the compound [4, 8]: 1.56 µg/mL | Colistin MIC in the presence of the compound ([5]; compound at 5 μg (Table 2a: 5 ug/ml)): >12.5 µg/mL | Colistin MIC in the presence of the compound [5, 9]: >12.5 µg/mL | Colistin MIC in the presence of the compound ([6]; strain 6083672926, MCR(−), compound at 5 μg (Table 2a: 5 ug/ml)): 12.5 µg/mL | Colistin MIC in the presence of the compound [6, 10]: 12.5 µg/mL | Colistin MIC in the presence of the compound ([6]; strain 7023446108, MCR(−), compound at 5 μg (Table 2a: 5 ug/ml)): 3.125 µg/mL | Colistin MIC in the presence of the compound [6, 11]: 3.125 µg/mL | Colistin MIC in the presence of the compound ([6]; strain 7033607097, MCR(−), compound at 5 μg (Table 2a: 5 ug/ml)): 3.125 µg/mL | Colistin MIC in the presence of the compound [6, 12]: 3.125 µg/mL

CN(C)CCCN(CCCCOc1ccc(C2COc3c(ccc4c3C=CC(C)(C)O4)C2)c(OCCCCN(CCCN(C)C)CCCN(C)C)c1)CCCN(C)C (centres unmarked) [LC095]
MIC ([1]; strain 6075066346, MCR (+)): 50 µg/mL (≈ 61.9 µM) | MIC ([1]; strain 6083655967, MCR (+)): 50 µg/mL (≈ 61.9 µM) | MIC ([1]; strain 6103645107, MCR (+)): 25 µg/mL (≈ 31 µM) | MIC ([1]; strain 6123520276, MCR (+)): 50 µg/mL (≈ 61.9 µM) | MIC ([1]; strain 7013177695, MCR (+)): 25 µg/mL (≈ 31 µM) | MIC ([1]; strain 7023436560, MCR (+)): 25 µg/mL (≈ 31 µM) | MIC ([1]; strain 7023444207, MCR (+)): 25 µg/mL (≈ 31 µM) | MIC [2]: >50 µg/mL | MIC ([3]; strain 6083672926, MCR (−)): 25 µg/mL (≈ 31 µM) | MIC ([3]; strain 7023446108, MCR (−)): 25 µg/mL (≈ 31 µM) | MIC ([3]; strain 7033607097, MCR (−)): 25 µg/mL (≈ 31 µM) | Colistin MIC in the presence of the compound ([4]; strain 6075066346, MCR(+), compound at 10 μg (Table 2a: 10 ug/ml)): 3.125 µg/mL | Colistin MIC in the presence of the compound [4, 7]: 3.125 µg/mL | Colistin MIC in the presence of the compound ([4]; strain 6103645107, MCR(+), compound at 10 μg (Table 2a: 10 ug/ml)): 3.125 µg/mL | Colistin MIC in the presence of the compound ([4]; strain 6123520276, MCR(+), compound at 10 μg (Table 2a: 10 ug/ml)): 1.56 µg/mL | Colistin MIC in the presence of the compound ([4]; strain 7013177695, MCR(+), compound at 10 μg (Table 2a: 10 ug/ml)): 3.125 µg/mL | Colistin MIC in the presence of the compound ([4]; strain 7023436560, MCR(+), compound at 10 μg (Table 2a: 10 ug/ml)): 3.125 µg/mL | Colistin MIC in the presence of the compound [4, 8]: 1.56 µg/mL | Colistin MIC in the presence of the compound [5, 9]: >12.5 µg/mL | Colistin MIC in the presence of the compound [6, 10]: 12.5 µg/mL | Colistin MIC in the presence of the compound [6, 11]: 3.125 µg/mL | Colistin MIC in the presence of the compound [6, 12]: 3.125 µg/mL
